# Experimental data reported in paper PMC4645114, “Discovery of Novel ROCK1 Inhibitors via Integrated Virtual Screening Strategy and Bioassays” (Scientific Reports, 2015).
# Values joined by “and” are separate entries in the source; they are usually repeats but may differ in a detail not shown here. Equal entries are not always repeated.
# Columns and labels:
# [1] = target: T1, ROCK1 (Homo sapiens, UniProt Q13464); assay: Z′-LYTE kinase assay, ROCK1 enzyme activity; assay type: biochemical
# T1 construct: 15 μl kinase reaction volume with 5 ng ROCK1 enzyme
# Experimental: Kinase inhibition was measured by using the Z′-LYTE™ Kinase Assay Kit with Ser/Thr 7 peptide substrate (Invitrogen, cat. PV3180). Compounds were tested on three individual times with eight point dilutions performed in duplicate to determine the average IC50 values. The assay conditions were optimized to 15 μl kinase reaction volume with 5 ng ROCK1 enzyme in 50 mM HEPES (pH = 7.5), 10 mM MgCl2, 0.01% Brij-35 and 1 mM EGTA. Initially, the reaction was incubated for 1 hour at room temperature in the presence of 1.5 μM peptide substrate and 12.5 μM ATP for ROCK1. Then, 5 μL development reagent A was added and the assay plate was incubated for another 1 hour. Finally, […] stop reagent was added and the assay plate was shaken for 1 hour. The coumarin (ex. 400 nm, em. 445 nm) and fluorescein (ex. 400 nm, em. 520 nm) emission signals were measured on a fluorescence plate reader (Thermo Scientific Varioskan Flash).
# [2] = test system: zebrafish embryos; assay: Atorvastatin-induced cerebral hemorrhage in zebrafish; assay type: in vivo; parameters: hemorrhage changes compared with the disease model group: dose or concentration left out as unconfirmed; conditions: for Cerebral hemorrhage rate (%): then atorvastatin 24 hours; for hemorrhage changes compared with the disease model group: atorvastatin 24 hours
# Experimental: Tg (fli1a:EGFP)y1; Tg (gata1a:dsRed)sd2 homozygous double transgenic zebrafish was used and maintained as described in our previous study. […] The animal experiments were carried out in “accordance” with the approved guidelines of the Animal Research Ethics Committee, University of Macau and approved by the Animal Research Ethics Committee, University of Macau.
# Tg (fli1a:EGFP)y1; Tg (gata1a:dsRed)sd2 homozygous double transgenic zebrafish embryos at 22 hours post-fertilization (hpf) were pretreated with the targeted compounds (TS 15 and TS 40) for 2 hours. During this period, the positive control group was treated with […] Y27632 while the vehicle control group was given with 0.2% DMSO (solvent). Then, all the pretreated embryos washed with PBS for 3 times and challenged with 1 mM atorvastatin for 24 hours according to the reported protocol with small modifications. After that, the viability and cerebral hemorrhage changes were observed using a fluorescence microscope (Olympus IX81 Motorized Inverted Microscope, Japan) equipped with a digital camera (DP controller, Soft Imaging System, Olympus, Germany). The results were analyzed with Axiovision 4.2 (Soft Imaging System, Olympus, Germany) and the public-domain Image J software (Rasband WS, Image J; US National Institutes of Health, Bethesda, MD). The cerebral hemorrhage rate of each group was calculated by the number of zebrafish with cerebral hemorrhage to the total number of each group.
# [3] = test system: phosphorylation of cofilin (ROCK pathway) in HUVEC; assay: Western blotting of cofilin phosphorylation in HUVEC; assay type: cell-based, Human; conditions: compared with the control group
# Experimental: Human umbilical vein endothelial cells (HUVEC, ATCC, Manassas, USA) were cultured and maintained in the F-12 K medium with 2 mM L-glutamine, 1.5 g/L sodium bicarbonate, 100 μg/mL heparin, 30 μg/mL endothelial cell growth supplement and 10% fetal bovine serum (FBS) at 37 °C in a humidified atmosphere of 5% CO2. Cells were exposed to culture medium with 10% FBS for at least 1 day before experiments. Only 3–6 passages of cells were used in this study.
# HUVEC was pretreated with different targeted compounds (TS-15 and TS-40) for 1 hour. Y27632 and 0.2% DMSO were used as the positive control and vehicle control, respectively. After drug treatment, cells were washed with pre-cold PBS and lysed on ice with RIPA lysis buffer for 30 min, followed by centrifugation at 12,500 g for 20 min at 4 °C. The supernatant was collected and protein concentration was determined using the BCA protein assay kit (Thermo Scientific Pierce). Aliquots of protein samples were boiled for 5 min at 95 °C and electrophoresed on 10% SDS-PAGE and then transferred to a polyvinylidene difluoride membrane (Bio-Rad, Hercules, CA, USA). Subsequently, the membrane was blocked with 5% (w/v) nonfat milk in TBS-T buffer for 1 hour at room temperature. The blots were incubated overnight at 4 °C with primary antibodies. After being washed with TBS-T for 20 min at room temperature, the membranes were further incubated with horseradish peroxidase-conjugated secondary antibodies for 2 hours at room temperature. Finally, protein bands were visualized using ECL Plus Western blotting detection reagents (GE Healthcare, Piscataway, NJ, USA). The membranes were then scanned on a Bio-Rad ChemiDoc imaging system and the intensity of the protein bands was analyzed using the Bio-Rad Image Lab software.
# [4] = ROCK1, 12.5 μM ATP, 8-point dilutions, three individual times
# T1 sequence (Q13464 whole entry): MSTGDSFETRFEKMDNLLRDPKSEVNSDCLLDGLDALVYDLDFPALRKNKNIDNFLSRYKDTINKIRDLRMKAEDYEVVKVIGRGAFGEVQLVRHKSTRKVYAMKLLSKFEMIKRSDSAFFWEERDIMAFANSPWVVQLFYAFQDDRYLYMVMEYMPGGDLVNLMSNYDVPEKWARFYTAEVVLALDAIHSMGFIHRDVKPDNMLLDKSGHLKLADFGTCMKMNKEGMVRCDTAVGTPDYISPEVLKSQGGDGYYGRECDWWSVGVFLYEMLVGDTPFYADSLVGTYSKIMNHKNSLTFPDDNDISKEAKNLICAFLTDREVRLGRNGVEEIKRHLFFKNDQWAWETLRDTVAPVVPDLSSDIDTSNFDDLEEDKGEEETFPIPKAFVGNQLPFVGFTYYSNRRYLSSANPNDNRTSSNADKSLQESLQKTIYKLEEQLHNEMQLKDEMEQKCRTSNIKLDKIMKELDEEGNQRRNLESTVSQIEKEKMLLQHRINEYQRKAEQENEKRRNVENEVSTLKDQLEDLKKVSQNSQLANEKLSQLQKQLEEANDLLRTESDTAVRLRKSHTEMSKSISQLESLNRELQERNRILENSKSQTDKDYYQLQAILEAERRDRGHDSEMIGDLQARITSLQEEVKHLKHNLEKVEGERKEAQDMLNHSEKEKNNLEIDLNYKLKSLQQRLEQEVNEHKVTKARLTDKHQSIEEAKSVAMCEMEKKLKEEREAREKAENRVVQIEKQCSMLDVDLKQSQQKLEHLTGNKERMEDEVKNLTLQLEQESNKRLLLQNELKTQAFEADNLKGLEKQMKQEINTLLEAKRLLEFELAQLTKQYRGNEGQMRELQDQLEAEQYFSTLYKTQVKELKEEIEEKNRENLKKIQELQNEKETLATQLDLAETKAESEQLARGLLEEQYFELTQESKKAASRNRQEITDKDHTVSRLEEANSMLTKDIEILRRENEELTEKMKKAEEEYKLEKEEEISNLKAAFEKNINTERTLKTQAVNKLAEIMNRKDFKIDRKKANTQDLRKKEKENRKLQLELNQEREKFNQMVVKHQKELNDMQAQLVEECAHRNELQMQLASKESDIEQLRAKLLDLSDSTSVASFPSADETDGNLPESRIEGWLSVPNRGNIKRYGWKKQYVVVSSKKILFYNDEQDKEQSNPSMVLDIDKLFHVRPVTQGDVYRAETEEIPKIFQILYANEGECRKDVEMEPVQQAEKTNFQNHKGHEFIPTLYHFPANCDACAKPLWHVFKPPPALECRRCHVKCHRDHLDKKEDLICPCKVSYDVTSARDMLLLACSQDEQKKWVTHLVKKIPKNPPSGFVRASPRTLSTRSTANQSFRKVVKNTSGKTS
smiles,measurement,setting,value
OC(CN1CCOCC1)c1ccc(-c2ccnc3[nH]ccc23)cc1 (stereo not shown) [TS-15],IC50,[1]; [4],< 1 µM and 0.25 µM
same,IC50,"[1]; ROCK1, value given in text",< 0.3 µM
same,Cerebral hemorrhage rate (%),[2]; 6 μM pretreatment,79.3 ± 5.9%
same,Cerebral hemorrhage rate (%),[2]; 20 μM pretreatment,73.5 ± 13.0 %
same,Cerebral hemorrhage rate (%),[2]; 60 μM pretreatment,"<60 ^b,* %"
same,hemorrhage changes compared with the disease model group,[2],obviously abated
same,inhibitory rate against cerebral hemorrhage,[2]; dose of 6 μM,79.3%
same,inhibitory rate against cerebral hemorrhage,[2]; dose of 20 μM,73.5%
same,toxicity to zebrafish,[2]; dose of 20 μM,relatively safe
same,inhibitory rate against cerebral hemorrhage,[2]; dose of 60 μM,< 60%
same,toxicity to zebrafish,[2]; dose of 60 μM,toxic
same,"phosphorylation level of cofilin (p-cofilin band, ratio to T-cofilin)",[3],significant inhibitory effects
Nc1cc(-c2ccc(C3(O)CCNCC3)cc2)c2cc[nH]c2n1 [TS-28],IC50,[1]; [4],6.71 ± 1.48 µM
Cn1ncc2cc(-c3ccnc4[nH]ccc34)ccc21 [TS-f22],IC50,[1]; [4],< 1 µM and 0.48 µM
O=C(NCCc1c[nH]cn1)c1coc(COc2cccc3cnccc23)n1 [TS-f10],IC50,[1]; [4],31.4 ± 1.63 µM
CNc1cc(-c2ccccc2OCCn2ccnc2)c2cc[nH]c2n1 [TS-27],IC50,[1]; [4],26.5 ± 1.13 µM
CCCCNC(=O)c1ccc(-c2ccnc3[nH]ccc23)o1 [TS-f32],IC50,[1]; [4],2.21 ± 0.21 µM
"C[C@@H](N)[C@H]1CC[C@H](C(=O)Nc2ccncc2)CC1 [Y27632, reference compound]",Cerebral hemorrhage rate (%),[2]; 10 μM pretreatment,74.4 ± 8.7 %
same,hemorrhage changes compared with the disease model group,[2],obviously abated
same,inhibitory rate against cerebral hemorrhage,[2]; dose of 10 μM,74.4%
same,"phosphorylation level of cofilin (p-cofilin band, ratio to T-cofilin)",[3],reduced significantly
O=c1[nH]c2ccc(-c3cc(NC4CCCC4)nc4[nH]ccc34)cc2[nH]c1=O [TS-11],IC50,[1]; [4],67.2 ± 0.57 µM
c1cc(OCCn2ccnc2)cc(-c2ccnc3[nH]ccc23)c1 [TS-f37],IC50,[1]; [4],1.82 ± 0.76 µM
COCCNc1cc(-c2ccc(C3(O)CCNCC3)cc2)c2cc[nH]c2n1 [TS-16],IC50,[1]; [4],9.94 ± 4.33 µM
CN(Cc1cccc(C(=O)Nc2ccc3[nH]ncc3c2)c1)Cc1cc[nH]n1 [TS-f6],IC50,[1]; [4],12.4 ± 0.85 µM
CN(Cc1cc(F)ccc1O)Cc1cccc2cnccc12 [TS-f28],IC50,[1]; [4],23.05 ± 0.07 µM
NS(=O)(=O)c1ccc(-c2ccnc3[nH]ccc23)c(F)c1 [TS-40],IC50,[1]; [4],< 1 µM and 0.15 µM
same,IC50,"[1]; ROCK1, value given in text",< 0.3 µM
same,Cerebral hemorrhage rate (%),[2]; 6 μM pretreatment,90.6 ± 7.4%
same,Cerebral hemorrhage rate (%),[2]; 20 μM pretreatment,78.8 ± 7.1 %
same,Cerebral hemorrhage rate (%),[2]; 60 μM pretreatment,66.2 ± 7.2 %
same,hemorrhage changes compared with the disease model group,[2],obviously abated
same,inhibitory rate against cerebral hemorrhage,[2]; dose of 20 μM,78.8%
same,inhibitory rate against cerebral hemorrhage,[2]; dose of 60 μM,66.2%
same,"phosphorylation level of cofilin (p-cofilin band, ratio to T-cofilin)",[3],significant inhibitory effects
OCCCNCc1cccc(-c2ccnc3[nH]ccc23)c1 [TS-f5],IC50,[1]; [4],1.55 ± 0.57 µM
O=S(=O)(c1ccccc1)c1ccc(-c2ccnc3[nH]ccc23)cc1 [TS-f13],IC50,[1]; [4],3.2 ± 1.06 µM
COCc1nc2cc(-c3ccnc4[nH]ccc34)ccc2o1 [TS-f25],IC50,[1]; [4],4.42 ± 1.14 µM
Cc1nc(-c2cccc(-c3ccnc4[nH]ccc34)c2)no1 [TS-f26],IC50,[1]; [4],3.48 ± 1.65 µM
NCC1CCN(Cc2ccc(-c3nc(-c4ccncc4)cc(=O)[nH]3)cc2)CC1 [TS-f7],IC50,[1]; [4],28.3 ± 0.99 µM
